Results from US5017596A, “Arylpyrazolylcarbinol compounds with analgesic activity” (Laboratorios del Dr. Esteve, S.A., priority 1987, dated 1991).
Where two headings read alike, the source gives them in different places.

What was measured:
Type in all cases: in vivo, Swiss male mice
Settings in all cases: Mus musculus, po, read-out: % inhibition of contortions
[1] = system: contortions induced by phenylbenzoquinone in mice; assay: Analgesic activity: inhibition of the contortions induced by phenylbenzoquinone in mice (Siegmund's method)
Procedure: Analgesic activity: Inhibition of the contortions induced by phenylbenzoquinone in mice--Siegmund's method (E. Siegmund, R. Cadmus and G. Lu, Proc Soc. Exp. Biol. Med., 95, 729 (1957))
(§1) Swiss male mice weighing 17-22 grams are used. Groups containing a minimum of 4 animals are used.
Contortions are induced by the intraperitoneal injection of phenyl-p-benzoquinone (25 ml/kg of a 0.02% solution in a solution of ethanol at a concentration of 5% (v/v) in distilled water, with Evans blue in a proportion of 0.1% (w/v)) and are counted for 15 minutes as from the time of injection. Each product is suspended or dissolved in gum arabic at a concentration of 5% (w/v) in distilled water and is administered orally, at a dose of 160 mg/kg, 60 minutes before the injection of phenylbenzoquinone. The inhibition of contortions due to each product is determined, taking as the reference the contortions in a group of control animals to which only the vehicle is administered orally 60 minutes before the phenylbenzoquinone.

[2] = system: contortions induced by acetic acid in mice; assay: Analgesic activity: inhibition of the contortions induced by acetic acid in mice (Koster's method)
Procedure: Swiss male mice weighing 17-22 grams are used. Groups containing a minimum of 4 animals for each dose are used.
Each product is suspended or dissolved in gum arabic at a concentration of 5% (w/v) in distilled water and is administered orally, at a dose of 160 mg/kg, 60 minutes before the injection of acetic acid.

[3] = system: contortions induced by acetylcholine bromide in mice; assay: Analgesic activity: inhibition of the contortions induced by acetylcholine bromide in mice (Collier's method)
Procedure: as §1
Contortions are induced by the intraperitoneal injection of acetylcholine bromide (7.2 mg/kg, dissolved in physiological serum, a volume of 10 ml/kg of weight being administered) at the start of the experiment and the number of contortions is counted for 5 minutes, this being the reference number for each animal (mice with fewer than 2 contortions are rejected). Immediately afterwards, the test products are administered orally, at a dose of 160 mg/kg, in the form of a suspension or solution in gum arabic at a concentration of 5% (w/v) in distilled water. 40 and 120 minutes after the treatment, acetylcholine bromide is administered again, the contortions are noted and the readings at 40 and 120 minutes are evaluated, taking the contortions of the initial reading as the reference.

[4] = 160 mg/kg, administered orally, acetylcholine bromide 7.2 mg/kg i.p., mean of the values at 40 and 120 minutes
[5] = 160 mg/kg, administered orally 60 minutes before acetic acid i.p., contortions counted for 15 minutes
[6] = 160 mg/kg, administered orally 60 minutes before phenylbenzoquinone i.p., contortions counted for 15 minutes

SMILES	inhibition in vivo at 160 mg/kg [3, 4] [%]	inhibition in vivo at 160 mg/kg [1, 6] [%]	also measured
CC(=O)Oc1ccccc1C(=O)O [Acetylsalicylic acid, reference compound]			inhibition in vivo at 160 mg/kg [1]: 75%; inhibition in vivo at 160 mg/kg [2]: 72.5%; inhibition in vivo at 160 mg/kg [3]: 92.5%
CN(C)CCOC(C)(c1ccc(Cl)cc1)c1nccn1C (stereo not drawn) [Example 2]	100		
CN(C)CCOC(c1cccc(Cl)c1)c1nccn1C (stereo not drawn) [Example 4]	95		
CN(C)CCOC(C)(c1ccccc1Cl)c1nccn1C (stereo not drawn) [Example 5]	100		
CN(C)CCOC(C)(c1ccc(F)cc1)c1nccn1C (stereo not drawn) [Example 6]	75		inhibition in vivo at 160 mg/kg [2, 5]: 50%
CN(C)CCOC(C)(c1cccc(C(F)(F)F)c1)c1nccn1C (stereo not drawn) [Example 7]	95		inhibition in vivo at 160 mg/kg [2, 5]: 67.5%
CN(C)CCOC(C)(c1cccc(Cl)c1)c1nccn1C (stereo not drawn) [Example 8]	95		
CCCCC(OCCN(C)C)(c1cccc(Cl)c1)c1nccn1C (stereo not drawn) [Example 9]	97.5		
Cn1ccnc1C(C)(OCCN1CCCC1)c1cccc(Cl)c1 (stereo not drawn) [Example 12]			inhibition in vivo at 160 mg/kg [2, 5]: 82.5%
CCCCn1ccnc1C(OCCN(C)C)c1ccc(C(F)(F)F)cc1 (stereo not drawn) [Example 14]	85		
CN(C)CCOC(C)(c1ccc(Cl)c(Cl)c1)c1nccn1C (stereo not drawn) [Example 18]		82.5	
CN(C)CCOC(c1ccc(Cl)c(Cl)c1)c1nccn1C (stereo not drawn) [Example 19]		87.5	
CN(C)CCOC(C)(c1ccc(Cl)cc1)c1nccn1CCN1CCCCC1 (stereo not drawn) [Example 20]		25	
CCCCn1nccc1C(OCCN(C)C)c1ccccc1 (stereo not drawn) [Example 27]		40	
CCCCn1nccc1C(C)(OCCN(C)C)c1ccc(Cl)cc1 (stereo not drawn) [Example 30]		27.5	
CN(C)CCOC(c1ccccc1)c1ccnn1C (stereo not drawn) [Example 31]		80	inhibition in vivo at 160 mg/kg [2, 5]: 80%
CN(C)CCOC(C)(c1ccccc1)c1ccnn1C (stereo not drawn) [Example 32]		37.5	
COc1cc(C(OCCN(C)C)c2ccnn2C)cc(OC)c1OC (stereo not drawn) [Example 33]		35	
Cn1nccc1C(OCCN1CCCC1)c1ccccc1 (stereo not drawn) [Example 34]			inhibition in vivo at 160 mg/kg [1]: 40%
CN(C)CCOC(c1ccccc1)c1c(Br)cnn1C (stereo not drawn) [Example 37]		77.5	inhibition in vivo at 160 mg/kg [2, 5]: 72.5%
Cc1cc(C(C)(OCCN(C)C)c2ccccc2)n(C)n1 (stereo not drawn) [Example 38]		42.5	

SMILES	inhibition in vivo at 160 mg/kg [3, 4] [%]	inhibition in vivo at 160 mg/kg [1, 6] [%]	also measured
Cc1cc(C(OCCN(C)C)c2ccccc2)n(C)n1 (stereo not drawn) [Example 39]		37.5	
CN(C)CCCOC(C)(c1ccc(Cl)cc1)c1nccn1C (stereo not drawn) [Example 59, α-(4-chlorophenyl)-α-methyl-1-methyl-0-(3-dimethylaminopropyl)-1H-imidazole-2-methanol]	100		inhibition in vivo at 160 mg/kg [2, 5]: 87.5%
CN(C)CCCOC(c1cccc(Cl)c1)c1nccn1C (stereo not drawn) [Example 60]	82.5		inhibition in vivo at 160 mg/kg [2, 5]: 62.5%
CCC(OCCCN(C)C)(c1ccc(Cl)cc1)c1nccn1C (stereo not drawn) [Example 61]	97.5		
CN(C)CCCOC(C)(c1ccc(F)cc1)c1nccn1C (stereo not drawn) [Example 64]	100		inhibition in vivo at 160 mg/kg [2, 5]: 50%
COc1cc(C(C)(OCCCN(C)C)c2nccn2C)cc(OC)c1OC (stereo not drawn) [Example 68]	95		
COc1ccc(C(C)(OCCCN(C)C)c2nccn2C)cc1 (stereo not drawn) [Example 69]	95		
CN(C)CCCOC(c1ccc(Cl)cc1)c1nccn1C (stereo not drawn) [Example 70]	100		
CN(C)CCCOC(C)(c1ccc(C(F)(F)F)cc1)c1nccn1C (stereo not drawn) [Example 72]	100		
CN(C)CCCOC(c1cccc(C(F)(F)F)c1)c1nccn1C (stereo not drawn) [Example 73]	100		
CN(C)CCCOC(c1ccc(C(F)(F)F)cc1)c1nccn1C (stereo not drawn) [Example 74]	100		
COc1ccc(C(OCCCN(C)C)c2nccn2C)cc1 (stereo not drawn) [Example 75]	100		
CCCCC(OCCCN(C)C)(c1cccc(C(F)(F)F)c1)c1nccn1C (stereo not drawn) [Example 76]	100		
CCCCn1ccnc1C(C)(OCCCN(C)C)c1ccc(Cl)cc1 (stereo not drawn) [Example 77]	100		
Cn1ccnc1C(OCCCN1CCCCC1)c1ccc(Cl)cc1 (stereo not drawn) [Example 82]	83.8		
Cn1ccnc1C(C)(OCCCN1CCCCC1)c1ccc(C(F)(F)F)cc1 (stereo not drawn) [Example 83]	88.3		
CN(C)CCCOC(C)(c1ccc(Cl)c(Cl)c1)c1nccn1C (stereo not drawn) [Example 86]		98.8	inhibition in vivo at 160 mg/kg [2, 5]: 50%
CN(C)CCCOC(c1ccc(Cl)c(Cl)c1)c1nccn1C (stereo not drawn) [Example 87]		77.5	
CN(C)CCCOC(c1ccc(Cl)cc1)(c1nccn1C)C1CCN(C)CC1 (stereo not drawn) [Example 91]		57.5	
CN(C)CCCOC(c1ccccc1)c1ccnn1C (stereo not drawn) [Example 94]		40	
CN(C)CCCOC(C)(c1ccccc1)c1ccnn1C (stereo not drawn) [Example 95]		45	

SMILES	inhibition in vivo at 160 mg/kg [3, 4] [%]	inhibition in vivo at 160 mg/kg [1, 6] [%]	also measured
Cn1ccnc1C(O)c1ccc(Cl)cc1 (stereo not drawn) [Example 107]	57.5		
Cn1ccnc1C(O)c1cccc(C(F)(F)F)c1 (stereo not drawn) [Example 110, 1-methyl-α-(3-trifluoromethylphenyl)-1H-imidazole-2-methanol]	57.5		
Cn1ccnc1C(O)c1ccc(C(F)(F)F)cc1 (stereo not drawn) [Example 111]	87.5		
Cn1ccnc1C(O)c1ccc(Cl)c(Cl)c1 (stereo not drawn) [Example 113]		57.5	
CCCCn1ccnc1C(O)c1ccc(Cl)cc1Cl (stereo not drawn) [Example 115]		39.5	inhibition in vivo at 160 mg/kg [2, 5]: 50%
CCCCn1ccnc1C(O)c1ccc(Cl)cc1 (stereo not drawn) [Example 116]		27.5	
CCCCn1ccnc1C(O)c1cc(OC)c(OC)c(OC)c1 (stereo not drawn) [Example 117]	60		
CCCCC(O)(c1cccc(Cl)c1)c1nccn1C (stereo not drawn) [Example 119]	90		inhibition in vivo at 160 mg/kg [2, 5]: 45%
Cn1ccnc1C(C)(O)c1ccc(Cl)cc1 (stereo not drawn) [Example 121, α-(4-chlorophenyl)-α-methyl-1-methyl-1H-imidazole-2-methanol]	70		
Cn1ccnc1C(C)(O)c1ccccc1Cl (stereo not drawn) [Example 126]	65		
CCCCC(O)(c1ccccc1Cl)c1nccn1C (stereo not drawn) [Example 127]	70		
Cn1ccnc1C(C)(O)c1cccc(C(F)(F)F)c1 (stereo not drawn) [Example 128]	82.5	67.5	inhibition in vivo at 160 mg/kg [2, 5]: 52.5%
CCCCC(O)(c1cccc(C(F)(F)F)c1)c1nccn1C (stereo not drawn) [Example 129]	55		
COc1ccc(C(C)(O)c2nccn2C)cc1 (stereo not drawn) [Example 133]	52.5		
COc1cc(C(C)(O)c2nccn2C)cc(OC)c1OC (stereo not drawn) [Example 137]	85		
CCCCn1ccnc1C(O)(CCCC)c1cc(OC)c(OC)c(OC)c1 (stereo not drawn) [Example 141]	62.5		
CCCCn1ccnc1C(O)(CCCC)c1ccccc1Cl (stereo not drawn) [Example 142]	80		
CCCCn1ccnc1C(O)(CCCC)c1ccc(Cl)cc1Cl (stereo not drawn) [Example 144]	88.8		
CN(C)CCCn1ccnc1C(C)(O)c1ccc(Cl)cc1 (stereo not drawn) [Example 146]		28.5	
CN1CCOC(c2ccccc2)c2ccccc2C1 (stereo not drawn) [Nefopam, reference compound]	100	97.5	inhibition in vivo at 160 mg/kg [2, 5]: 98%
CC(=O)Nc1ccc(O)cc1 [Paracetamol, reference compound]	72.5	47.5	inhibition in vivo at 160 mg/kg [2, 5]: 20%
